Measurements taken from PubChem BioAssay AID1918995 (Molecular Pharmacology Branch, DTP, NCI, 2023).

Tested on: 324938-238-R-J1-PDC complex spheroid growth, % test/control
Assay: Anticancer human tumor 324938-238-R-J1-PDC patient-derived bladder carcinoma cell line growth inhibition [AhR]
Details: for IC50: curve of first compound; for viability, T/C: stronger effect = lower value
Procedure, shortened: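 Complex tumor spheroids co-cultured with HUVEC and human MSC stroma; AhR antagonists tested in combination with standard-of-care and investigational agents. Top concentration at or near clinical Cmax (else 10 microM), half-log dilutions; growth expressed as percent test/control.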

[1] = second compound 0.1 µM, first compound 0.0316 µM
[2] = second compound 0.1 µM, first compound 0.1 µM
[3] = second compound 0.1 µM, first compound 0.316 µM
[4] = second compound 0.1 µM, first compound 1 µM
[5] = second compound 0.1 µM, first compound 3.16 µM
[6] = second compound 0.1 µM, first compound 10 µM
[7] = second compound 0.316 µM, first compound 0.0316 µM
[8] = second compound 0.316 µM, first compound 0.1 µM
[9] = second compound 0.316 µM, first compound 0.316 µM
[10] = second compound 0.316 µM, first compound 1 µM
[11] = second compound 0.316 µM, first compound 3.16 µM
[12] = second compound 0.316 µM, first compound 10 µM
[13] = second compound 1 µM, first compound 0.0316 µM
[14] = second compound 1 µM, first compound 0.1 µM
[15] = second compound 1 µM, first compound 0.316 µM
[16] = second compound 1 µM, first compound 1 µM
[17] = second compound 1 µM, first compound 3.16 µM
[18] = second compound 1 µM, first compound 10 µM
[19] = second compound 3.16 µM, first compound 0.0316 µM
[20] = second compound 3.16 µM, first compound 0.1 µM
[21] = second compound 3.16 µM, first compound 0.316 µM
[22] = second compound 3.16 µM, first compound 1 µM
[23] = second compound 3.16 µM, first compound 3.16 µM
[24] = second compound 3.16 µM, first compound 10 µM
[25] = second compound 10 µM, first compound 0.0316 µM
[26] = second compound 10 µM, first compound 0.1 µM
[27] = second compound 10 µM, first compound 0.316 µM
[28] = second compound 10 µM, first compound 1 µM
[29] = second compound 10 µM, first compound 3.16 µM
[30] = second compound 10 µM, first compound 10 µM
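Further: spheroids exposed to agents for seven days before viability read.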

CC(C)CC(NC(=O)C(Cc1ccccc1)NC(=O)c1cnccn1)B(O)O (stereo not given) + Cc1ccccc1N=Nc1ccc(NC(=O)c2ccnn2C)c(C)c1
IC50 (second compound 0.1 µM): 5.19 nM | IC50 (second compound 0.316 µM): 4.9 nM | IC50 (second compound 1 µM): 4.83 nM | IC50 (second compound 3.16 µM): 4.38 nM | IC50 (second compound 10 µM): 4.51 nM | viability, T/C (second compound 0.1 µM, first compound 0.000949 µM): 97.5% | viability, T/C (second compound 0.1 µM, first compound 0.003 µM): 94.3% | viability, T/C (second compound 0.1 µM, first compound 0.00949 µM): 1.29% | viability, T/C (second compound 0.1 µM, first compound 0.03 µM): 0.07% | viability, T/C (second compound 0.1 µM, first compound 0.0949 µM): 0.09% | viability, T/C (second compound 0.1 µM, first compound 0.3 µM): 0.27% | viability, T/C (second compound 0.316 µM, first compound 0.000949 µM): 92.3% | viability, T/C (second compound 0.316 µM, first compound 0.003 µM): 84.6% | viability, T/C (second compound 0.316 µM, first compound 0.00949 µM): 3.23% | viability, T/C (second compound 0.316 µM, first compound 0.03 µM): 0.04% | viability, T/C (second compound 0.316 µM, first compound 0.0949 µM): 0.05% | viability, T/C (second compound 0.316 µM, first compound 0.3 µM): 0.19% | viability, T/C (second compound 1 µM, first compound 0.000949 µM): 95.1% | viability, T/C (second compound 1 µM, first compound 0.003 µM): 84.1% | viability, T/C (second compound 1 µM, first compound 0.00949 µM): 1.49% | viability, T/C (second compound 1 µM, first compound 0.03 µM): 0.04% | viability, T/C (second compound 1 µM, first compound 0.0949 µM): 0.07% | viability, T/C (second compound 1 µM, first compound 0.3 µM): 0.17% | viability, T/C (second compound 3.16 µM, first compound 0.000949 µM): 84.2% | viability, T/C (second compound 3.16 µM, first compound 0.003 µM): 73.4% | viability, T/C (second compound 3.16 µM, first compound 0.00949 µM): 2.32% | viability, T/C (second compound 3.16 µM, first compound 0.03 µM): 0.06% | viability, T/C (second compound 3.16 µM, first compound 0.0949 µM): 0.06% | viability, T/C (second compound 3.16 µM, first compound 0.3 µM): 0.19% | viability, T/C (second compound 10 µM, first compound 0.000949 µM): 85.9% | viability, T/C (second compound 10 µM, first compound 0.003 µM): 76.1% | viability, T/C (second compound 10 µM, first compound 0.00949 µM): 2.47% | viability, T/C (second compound 10 µM, first compound 0.03 µM): 0.24% | viability, T/C (second compound 10 µM, first compound 0.0949 µM): 0.36% | viability, T/C (second compound 10 µM, first compound 0.3 µM): 0.32%

COc1cc(Nc2ncc3c(n2)-c2ccc(Cl)cc2C(c2c(F)cccc2OC)=NC3)ccc1C(=O)O + Cc1ccccc1N=Nc1ccc(NC(=O)c2ccnn2C)c(C)c1
IC50 (second compound 0.1 µM): 139 nM | IC50 (second compound 0.316 µM): 101 nM | IC50 (second compound 1 µM): 85.5 nM | IC50 (second compound 3.16 µM): 66.2 nM | IC50 (second compound 10 µM): 71 nM | viability, T/C [1]: 72.5% | viability, T/C [2]: 55.7% | viability, T/C [3]: 36.1% | viability, T/C [4]: 31.9% | viability, T/C [5]: 31.6% | viability, T/C [6]: 39.4% | viability, T/C [7]: 66.7% | viability, T/C [8]: 50.1% | viability, T/C [9]: 32.8% | viability, T/C [10]: 32.5% | viability, T/C [11]: 33.8% | viability, T/C [12]: 34.3% | viability, T/C [13]: 65.1% | viability, T/C [14]: 47.6% | viability, T/C [15]: 31.6% | viability, T/C [16]: 31.2% | viability, T/C [17]: 30.4% | viability, T/C [18]: 34.8% | viability, T/C [19]: 57.4% | viability, T/C [20]: 45.9% | viability, T/C [21]: 27.5% | viability, T/C [22]: 28.7% | viability, T/C [23]: 27.5% | viability, T/C [24]: 30.1% | viability, T/C [25]: 60.4% | viability, T/C [26]: 49.1% | viability, T/C [27]: 34.8% | viability, T/C [28]: 36.9% | viability, T/C [29]: 37% | viability, T/C [30]: 41.7%

NS(=O)(=O)OCC1CC(n2ccc3c(NC4CCc5ccccc54)ncnc32)CC1O (stereo not given) + Cc1ccccc1N=Nc1ccc(NC(=O)c2ccnn2C)c(C)c1
IC50 (second compound 0.1 µM): 1360 nM | IC50 (second compound 0.316 µM): 1070 nM | IC50 (second compound 1 µM): 1040 nM | IC50 (second compound 3.16 µM): 875 nM | IC50 (second compound 10 µM): 929 nM | viability, T/C [1]: 85.5% | viability, T/C [2]: 103% | viability, T/C [3]: 79.7% | viability, T/C [4]: 59% | viability, T/C [5]: 28.9% | viability, T/C [6]: 27.7% | viability, T/C [7]: 93.2% | viability, T/C [8]: 88.8% | viability, T/C [9]: 76.1% | viability, T/C [10]: 55.4% | viability, T/C [11]: 23.4% | viability, T/C [12]: 30.1% | viability, T/C [13]: 88% | viability, T/C [14]: 83.4% | viability, T/C [15]: 82.7% | viability, T/C [16]: 50.9% | viability, T/C [17]: 26.7% | viability, T/C [18]: 35.2% | viability, T/C [19]: 79.8% | viability, T/C [20]: 72.9% | viability, T/C [21]: 73.7% | viability, T/C [22]: 46.7% | viability, T/C [23]: 22.9% | viability, T/C [24]: 32% | viability, T/C [25]: 72.7% | viability, T/C [26]: 81% | viability, T/C [27]: 74.1% | viability, T/C [28]: 48.4% | viability, T/C [29]: 35.5% | viability, T/C [30]: 35.8%

O=C(C=Cc1cccc(S(=O)(=O)Nc2ccccc2)c1)NO + Cc1ccccc1N=Nc1ccc(NC(=O)c2ccnn2C)c(C)c1
IC50 (second compound 0.1 µM): 3110 nM | IC50 (second compound 0.316 µM): 2790 nM | IC50 (second compound 1 µM): 3060 nM | IC50 (second compound 3.16 µM): 2570 nM | IC50 (second compound 10 µM): 2790 nM | viability, T/C [1]: 103% | viability, T/C [2]: 91.5% | viability, T/C [3]: 98.4% | viability, T/C [4]: 65.5% | viability, T/C [5]: 53.8% | viability, T/C [6]: 33.4% | viability, T/C [7]: 98% | viability, T/C [8]: 102% | viability, T/C [9]: 81.1% | viability, T/C [10]: 69% | viability, T/C [11]: 48.1% | viability, T/C [12]: 32.5% | viability, T/C [13]: 93.3% | viability, T/C [14]: 99.1% | viability, T/C [15]: 84.4% | viability, T/C [16]: 75.8% | viability, T/C [17]: 48.2% | viability, T/C [18]: 33.2% | viability, T/C [19]: 84.1% | viability, T/C [20]: 84.6% | viability, T/C [21]: 83.5% | viability, T/C [22]: 66.3% | viability, T/C [23]: 47.2% | viability, T/C [24]: 38.6% | viability, T/C [25]: 78.4% | viability, T/C [26]: 85.2% | viability, T/C [27]: 71.3% | viability, T/C [28]: 62.1% | viability, T/C [29]: 49.6% | viability, T/C [30]: 36.3%
